Laboratory results: US20250170114A1, “METHODS OF TREATMENT USING T-TYPE CALCIUM CHANNEL MODULATORS” (Praxis Precision Medicines, Inc., priority 2022, published 2025)

Tested on: participants with ET
Test: Phase 2 trial: treatment-emergent adverse events (TEAEs)
Format: in vivo
Conditions: for SOC Nervous System Disorders / SOC Psychiatric Disorders / SOC Vascular Disorders / Any TEAE / PT Cognitive disorder / PT Constipation / PT Dizziness / PT Fatigue / PT Insomnia / SOC Gastrointestinal Disorders / SOC General Disorders and Administration Site Conditions / SOC Musculoskeletal and Connective Tissue Disorders: Part B
Excerpt: Part A of the clinical trial was open-label and assessed the safety and tolerability of the study drug, as well as the overall magnitude and pattern of change in ET severity.
Part B of the clinical trial consisted of both an open-label titration phase and a randomized, double-blind, placebo-controlled withdrawal phase. Part B assessed the safety and tolerability of the study drug, as well as the overall magnitude and pattern of change in ET severity and the duration of that effect. […] In the randomized, double-blind, placebo-controlled withdrawal phase, participants were either maintained on their final open-label dose or switched to placebo for an additional 14 days (Days 43 to 56).
Key safety measures included clinical laboratory evaluations, 12-lead ECG, C-SSRS, and vital signs. Key efficacy assessments included the TETRAS Performance subscale, TETRAS Upper Limb using accelerometry, CGI, and PGI-C. Blood samples were obtained for the determination of study drug plasma concentrations using a validated bioanalytical method and may also be used for method development and/or metabolite characterization.
On Day 1, participants received a 20 mg dose of study drug on an empty stomach (at least 1 hour before breakfast). Participants remained in a clinical setting under medical observation for approximately 6 hours. TETRAS Performance assessments were performed before dosing and 6 hours (±2) post-dose. For dosing on Day 2 through Day 41, participants were instructed to dose QAM at least 1 hour before breakfast at home. Participants continued taking study drug 20 mg QAM at home through Day 3. […] On Day 4, participants escalated to 40 mg QAM through Day 7, when they returned to the clinic for safety assessments and efficacy testing. On Day 8, participants escalated to 60 mg QAM through Day 14. […] On Day 15, participants escalated to 80 mg QAM through Day 21, when they returned to the clinic for safety assessments and efficacy testing. On Day 22, participants escalated to 100 mg QAM through Day 28. […] On Day 29, participants escalated to 120 mg QAM through Day 42, when they returned to the clinic for safety assessments and efficacy testing. The dose on Day 42 was taken in the clinic. On Day 35, participants received a telephone call from site staff to inquire about AEs and concomitant medications. On Day 41, participants completed a TETRAS Performance Upper Limb assessment via a telehealth visit. […] Participants could only change to a lower dose level once, and no dose changes were allowed to occur after Day 36.
In both phases, key safety measures included clinical laboratory evaluations, 12-lead ECG, C-SSRS, and vital signs. Key efficacy assessments included the TETRAS Performance subscale, TETRAS Upper Limb using accelerometry, CGI, PGI-C, TETRAS ADL Subscale, QUEST, BDI-II, and BAI. Blood samples were obtained for the determination of study drug and metabolite plasma concentrations.

[1] = open-label titration phase of Part B
[2] = randomized-withdrawal phase of Part B, participants receiving study drug

Compound: CC(C)(C)NC(=O)CN1CCC(CNC(=O)c2cc(F)cc(Cl)c2)CC1.Cl [Study drug]
- SOC Nervous System Disorders (40 mg, N = 15): 4 n (%)
- SOC Psychiatric Disorders (40 mg, N = 15): 2 n (%)
- SOC Vascular Disorders (40 mg, N = 15): 0 n (%)
- Any TEAE (60 mg, N = 12): 8 n (%)
- PT Cognitive disorder (60 mg, N = 12): 1 n (%)
- PT Constipation (60 mg, N = 12): 0 n (%)
- PT Dizziness (60 mg, N = 12): 2 n (%)
- PT Fatigue (60 mg, N = 12): 2 n (%)
- PT Insomnia (60 mg, N = 12): 0 n (%)
- SOC Gastrointestinal Disorders (60 mg, N = 12): 0 n (%)
- SOC General Disorders and Administration Site Conditions (60 mg, N = 12): 3 n (%)
- SOC Musculoskeletal and Connective Tissue Disorders (60 mg, N = 12): 2 n (%)
- SOC Nervous System Disorders (60 mg, N = 12): 8 n (%)
- SOC Psychiatric Disorders (60 mg, N = 12): 1 n (%)
- SOC Vascular Disorders (60 mg, N = 12): 2 n (%)
- Any TEAE (80 mg, N = 10): 4 (40.0) n (%)
- PT Cognitive disorder (80 mg, N = 10): 0 n (%)
- PT Constipation (80 mg, N = 10): 1 (10.0) n (%)
- PT Dizziness (80 mg, N = 10): 0 n (%)
- PT Fatigue (80 mg, N = 10): 0 n (%)
- PT Insomnia (80 mg, N = 10): 0 n (%)
- SOC Gastrointestinal Disorders (80 mg, N = 10): 2 (20.0) n (%)
- SOC General Disorders and Administration Site Conditions (80 mg, N = 10): 0 n (%)
- SOC Musculoskeletal and Connective Tissue Disorders (80 mg, N = 10): 0 n (%)
- SOC Nervous System Disorders (80 mg, N = 10): 2 (20.0) n (%)
- SOC Psychiatric Disorders (80 mg, N = 10): 0 n (%)
- SOC Vascular Disorders (80 mg, N = 10): 0 n (%)
- Any TEAE (100 mg, N = 9): 1 (11.1) n (%)
- PT Cognitive disorder (100 mg, N = 9): 0 n (%)
- PT Constipation (100 mg, N = 9): 1 (11.1) n (%)
- PT Dizziness (100 mg, N = 9): 0 n (%)
- PT Fatigue (100 mg, N = 9): 0 n (%)
- PT Insomnia (100 mg, N = 9): 0 n (%)
- SOC Gastrointestinal Disorders (100 mg, N = 9): 1 (11.1) n (%)
- SOC General Disorders and Administration Site Conditions (100 mg, N = 9): 0 n (%)
- SOC Musculoskeletal and Connective Tissue Disorders (100 mg, N = 9): 0 n (%)
- SOC Nervous System Disorders (100 mg, N = 9): 0 n (%)
- SOC Psychiatric Disorders (100 mg, N = 9): 0 n (%)
- SOC Vascular Disorders (100 mg, N = 9): 0 n (%)
- Any TEAE (120 mg, N = 9): 3 (33.3) n (%)
- PT Cognitive disorder (120 mg, N = 9): 0 n (%)
- PT Constipation (120 mg, N = 9): 1 (11.1) n (%)
- PT Dizziness (120 mg, N = 9): 0 n (%)
- PT Fatigue (120 mg, N = 9): 0 n (%)
- PT Insomnia (120 mg, N = 9): 0 n (%)
- SOC Gastrointestinal Disorders (120 mg, N = 9): 1 (11.1) n (%)
- SOC General Disorders and Administration Site Conditions (120 mg, N = 9): 0 n (%)
- SOC Musculoskeletal and Connective Tissue Disorders (120 mg, N = 9): 0 n (%)
- SOC Nervous System Disorders (120 mg, N = 9): 1 (11.1) n (%)
- SOC Psychiatric Disorders (120 mg, N = 9): 1 (11.1) n (%)
- SOC Vascular Disorders (120 mg, N = 9): 0 n (%)
- Any TEAE (Overall, N = 17): 15 n (%)
- PT Cognitive disorder (Overall, N = 17): 4 n (%)
- PT Constipation (Overall, N = 17): 6 n (%)
- PT Dizziness (Overall, N = 17): 6 n (%)
- PT Fatigue (Overall, N = 17): 3 n (%)
- PT Insomnia (Overall, N = 17): 3 n (%)
- SOC Gastrointestinal Disorders (Overall, N = 17): 8 n (%)
- SOC General Disorders and Administration Site Conditions (Overall, N = 17): 5 n (%)
- SOC Musculoskeletal and Connective Tissue Disorders (Overall, N = 17): 3 n (%)
- SOC Nervous System Disorders (Overall, N = 17): 12 n (%)
- SOC Psychiatric Disorders (Overall, N = 17): 4 n (%)
- SOC Vascular Disorders (Overall, N = 17): 2 n (%)
- severity of treatment emergent adverse events (TEAEs) (Phase 2 trial overall): mild to moderate
- discontinuation of participants during the titration period (accelerated titration regimen): a third
- overall safety and tolerability (doses up to 120 mg): generally safe and well tolerated
- Drug-related TEAE cognitive disorder [1]: 4 participants
- Drug-related TEAE dizziness [1]: 6 participants
- Drug-related TEAE paraesthesia [1]: 2 participants
- participants experiencing TEAEs considered related to study drug [1]: 70.6%
- participants who experienced at least 1 TEAE [1]: 88.2%
- serious adverse event (SAE) experienced (open-label titration phase of Part B, considered unrelated to study drug): One mild SAE of cyst
- participants who experienced TEAEs (randomized withdrawal phase of Part B, study drug group): 16.7%
- ongoing AE constipation that had emerged during open-label titration [2]: 3 participants
- ongoing AE photosensitivity/photophobia that had emerged during open-label titration [2]: 2 participants
